What was measured:
Assay in all cases: Test C preemergence
Type in all cases: in vivo
[1] = system: ryegrass, Italian (Italian ryegrass, Lolium multiflorum); settings: for Plant response rating, Ryegrass, Italian: scale 0 to 100, 0 no effect, 100 complete control
How it was run: (§1)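 Seeds in loam-sand soil treated preemergence, or plants in peat-based medium sprayed postemergence at 2–18 cm (1- to 4-leaf stage), with compound in a non-phytotoxic solvent mixture containing surfactant. Greenhouse-held 13–15 d, then visually rated against controls on a 0–100 scale (0 = no effect, 100 = complete control); dash = not tested.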

corn (Zea mays) = settings: for Plant response rating, Corn: scale 0 to 100, 0 no effect, 100 complete control
How it was run: as §1

[2] = system: ragweed (common ragweed, Ambrosia elatior); settings: for Plant response rating, Ragweed: scale 0 to 100, 0 no effect, 100 complete control
How it was run: as §1

[3] = system: morningglory (Ipomoea coccinea); settings: for Plant response rating, Morningglory: scale 0 to 100, 0 no effect, 100 complete control
How it was run: as §1

[4] = system: pigweed (Amaranthus retroflexus); settings: for Plant response rating, Pigweed: scale 0 to 100, 0 no effect, 100 complete control
How it was run: as §1

[5] = system: nutsedge, yellow (yellow nutsedge, Cyperus esculentus); settings: for Plant response rating, Nutsedge, Yellow: scale 0 to 100, 0 no effect, 100 complete control
How it was run: as §1

[6] = system: oilseed rape (Brassica napus); settings: for Plant response rating, Oilseed Rape: scale 0 to 100, 0 no effect, 100 complete control
How it was run: as §1

[7] = system: wheat (winter wheat, Triticum aestivum); settings: for Plant response rating, Wheat: scale 0 to 100, 0 no effect, 100 complete control
How it was run: as §1

[8] = system: foxtail, giant (giant foxtail, Setaria faberii); settings: for Plant response rating, Foxtail, Giant: scale 0 to 100, 0 no effect, 100 complete control
How it was run: as §1

[9] = system: barnyardgrass (Echinochloa crus-galli); settings: for Plant response rating, Barnyardgrass: scale 0 to 100, 0 no effect, 100 complete control
How it was run: as §1

[10] = system: Galium (catchweed bedstraw, Galium aparine); settings: for Plant response rating, Galium: scale 0 to 100, 0 no effect, 100 complete control
How it was run: as §1

[11] = system: velvetleaf (Abutilon theophrasti); settings: for Plant response rating, Velvetleaf: scale 0 to 100, 0 no effect, 100 complete control
How it was run: as §1

[12] = system: johnsongrass (Sorghum halepense); settings: for Plant response rating, Johnsongrass: scale 0 to 100, 0 no effect, 100 complete control
How it was run: as §1

soybean (Glycine max) = settings: scale 0 to 100, 0 no effect, 100 complete control
How it was run: as §1

[13] = system: crabgrass, large (large crabgrass, Digitaria sanguinalis); settings: for Plant response rating, Crabgrass, Large: scale 0 to 100, 0 no effect, 100 complete control
How it was run: as §1

[14] = system: blackgrass (Alopecurus myosuroides); settings: for Plant response rating, Blackgrass: scale 0 to 100, 0 no effect, 100 complete control
How it was run: as §1

[15] = system: lambsquarters (Chenopodium album); settings: for Plant response rating, Lambsquarters: scale 0 to 100, 0 no effect, 100 complete control
How it was run: as §1

[16] = system: waterhemp (common waterhemp, Amaranthus rudis); settings: for Plant response rating, Waterhemp: scale 0 to 100, 0 no effect, 100 complete control
How it was run: as §1

[17] = 31 g ai/ha, 0 is no effect, 100 is complete control

SMILES: CC(C)Oc1cccc(C2CN(C)C(=O)C2C(=O)Nc2ccccc2S(C)(=O)=O)c1 (stereo not shown) [Compound 653]
- Plant response rating (scale of 0 to 100), Ryegrass, Italian [1, 17]: 0
- Plant response rating, Ryegrass, Italian ([1]; 62 g ai/ha): 10
- Plant response rating, Ryegrass, Italian ([1]; 125 g ai/ha): 20
- Plant response rating, Ryegrass, Italian ([1]; 250 g ai/ha): 25
- Plant response rating (scale of 0 to 100), Corn (corn (Zea mays); [17]): 0
- Plant response rating, Corn (corn (Zea mays); 62 g ai/ha): 0
- Plant response rating, Corn (corn (Zea mays); 125 g ai/ha): 0
- Plant response rating, Corn (corn (Zea mays); 250 g ai/ha): 20
- Plant response rating (scale of 0 to 100), Ragweed [2, 17]: 0
- Plant response rating, Ragweed ([2]; 62 g ai/ha): 5
- Plant response rating, Ragweed ([2]; 125 g ai/ha): 35
- Plant response rating, Ragweed ([2]; 250 g ai/ha): 60
- Plant response rating (scale of 0 to 100), Morningglory [3, 17]: 0
- Plant response rating, Morningglory ([3]; 62 g ai/ha): 0
- Plant response rating, Morningglory ([3]; 125 g ai/ha): 0
- Plant response rating, Morningglory ([3]; 250 g ai/ha): 0
- Plant response rating (scale of 0 to 100), Pigweed [4, 17]: 30
- Plant response rating, Pigweed ([4]; 62 g ai/ha): 20
- Plant response rating, Pigweed ([4]; 125 g ai/ha): 50
- Plant response rating, Pigweed ([4]; 250 g ai/ha): 85
- Plant response rating (scale of 0 to 100), Nutsedge, Yellow [5, 17]: 0
- Plant response rating, Nutsedge, Yellow ([5]; 62 g ai/ha): 0
- Plant response rating, Nutsedge, Yellow ([5]; 125 g ai/ha): 0
- Plant response rating, Nutsedge, Yellow ([5]; 250 g ai/ha): 25
- Plant response rating (scale of 0 to 100), Oilseed Rape [6, 17]: 0
- Plant response rating, Oilseed Rape ([6]; 62 g ai/ha): 0
- Plant response rating, Oilseed Rape ([6]; 125 g ai/ha): 30
- Plant response rating, Oilseed Rape ([6]; 250 g ai/ha): 85
- Plant response rating (scale of 0 to 100), Wheat [7, 17]: 0
- Plant response rating, Wheat ([7]; 62 g ai/ha): 0
- Plant response rating, Wheat ([7]; 125 g ai/ha): 0
- Plant response rating, Wheat ([7]; 250 g ai/ha): 40
- Plant response rating (scale of 0 to 100), Foxtail, Giant [8, 17]: 85
- Plant response rating, Foxtail, Giant ([8]; 62 g ai/ha): 95
- Plant response rating, Foxtail, Giant ([8]; 125 g ai/ha): 95
- Plant response rating, Foxtail, Giant ([8]; 250 g ai/ha): 100
- Plant response rating (scale of 0 to 100), Barnyardgrass [9, 17]: 20
- Plant response rating, Barnyardgrass ([9]; 62 g ai/ha): 55
- Plant response rating, Barnyardgrass ([9]; 125 g ai/ha): 80
- Plant response rating, Barnyardgrass ([9]; 250 g ai/ha): 90
- Plant response rating (scale of 0 to 100), Galium [10, 17]: 0
- Plant response rating, Galium ([10]; 62 g ai/ha): 100
- Plant response rating, Galium ([10]; 125 g ai/ha): 30
- Plant response rating, Galium ([10]; 250 g ai/ha): 40
- Plant response rating (scale of 0 to 100), Velvetleaf [11, 17]: 0
- Plant response rating, Velvetleaf ([11]; 62 g ai/ha): 25
- Plant response rating, Velvetleaf ([11]; 125 g ai/ha): 35
- Plant response rating, Velvetleaf ([11]; 250 g ai/ha): 50
- Plant response rating (scale of 0 to 100), Johnsongrass [12, 17]: 0
- Plant response rating, Johnsongrass ([12]; 62 g ai/ha): 0
- Plant response rating, Johnsongrass ([12]; 125 g ai/ha): 40
- Plant response rating, Johnsongrass ([12]; 250 g ai/ha): 55
- Plant response rating, Soybean (soybean (Glycine max); 125 g ai/ha): 5
- Plant response rating, Soybean (soybean (Glycine max); 250 g ai/ha): 40
- Plant response rating (scale of 0 to 100), Crabgrass, Large [13, 17]: 90
- Plant response rating, Crabgrass, Large ([13]; 62 g ai/ha): 95
- Plant response rating, Crabgrass, Large ([13]; 125 g ai/ha): 100
- Plant response rating, Crabgrass, Large ([13]; 250 g ai/ha): 100
- Plant response rating (scale of 0 to 100), Blackgrass [14, 17]: 0
- Plant response rating, Blackgrass ([14]; 62 g ai/ha): 15
- Plant response rating, Blackgrass ([14]; 125 g ai/ha): 60
- Plant response rating, Blackgrass ([14]; 250 g ai/ha): 90
- Plant response rating (scale of 0 to 100), Lambsquarters [15, 17]: 15
- Plant response rating, Lambsquarters ([15]; 62 g ai/ha): 35
- Plant response rating, Lambsquarters ([15]; 125 g ai/ha): 50
- Plant response rating, Lambsquarters ([15]; 250 g ai/ha): 60
- Plant response rating (scale of 0 to 100), Waterhemp [16, 17]: 35
- Plant response rating, Waterhemp ([16]; 62 g ai/ha): 30
- Plant response rating, Waterhemp ([16]; 125 g ai/ha): 50
- Plant response rating, Waterhemp ([16]; 250 g ai/ha): 80

Source: patent US12077503B2, “Substituted cyclic amides and their use as herbicides” (FMC CORPORATION, priority 2015, dated 2024)
